In patent US6630179B1 (priority 1998, dated 2003):
Read-outs that look alike come from different tables or passages of the source.

Legend:
[1] = system: HIV-1 IIIB laboratory strain; assay: HIV-1 IIIB viral growth, different research group, compared to AZT; assay type: cell-based; conditions: HIV-1 IIIB (first-named isolate)
HIV-1 D isolate = HIV-1 D isolate viral growth, different research group, compared to AZT; assay type: cell-based; conditions: HIV-1 D isolate (second-named isolate)
Newcastle disease = assay type: in vivo, Ross 308 broiler chickens; conditions: Baytril 10 mg/kg/day for 3 days in first week, one day at 21 days of age; day 28 and 42
[2] = Study 1511: Subchronic oral toxicity in rats (90 day study); conditions: rat, in vivo
[3] = dog, in vivo
Experimental: All animals were euthanased after the 90-day period and a comprehensive post mortem examination, as well as a histopathological evaluation of an extensive list of organs, was performed.

[4] = rat, in vivo

Molecule: Cc1cn([C@H]2C[C@H](N=[N+]=[N-])[C@@H](CO)O2)c(=O)[nH]c1=O [AZT]
- AZT concentration giving the same level of viral growth as oxihumate 25 μg/ml [1]: 0.3 µM
- AZT concentration giving the same level of viral growth as oxihumate 25 μg/ml (HIV-1 D isolate): 12.5 µM

Molecule: CCN1CCN(c2cc3c(cc2F)c(=O)c(C(=O)O)cn3C2CC2)CC1 [Baytril]
- titers against Newcastle disease (Newcastle disease): two to four fold increase

Molecule: Potassium oxihumate
- end body mass of male treated animals [2]: statistically significant decrease
- circulating lymphocytes ([2]; po): decline
- clinical signs ([2]; po): No abnormal clinical signs were observed
- pathology and organ masses compared to the control animals ([2]; po): no notable differences
- serum globulins ([2]; po): consistent increase
- serum inorganic phosphate ([2]; po): decrease
- size and haemoglobinization of the red blood cells ([2]; po): drug-related increase
- blood chemistry and body masses ([2]; po, 1000 mg/kg/day): Slight alterations in blood chemistry and slight decreases in body masses
- overall toxicity assessment [3]: low toxicity
- post mortem and histopathological evaluation [3]: did not induce any measurable pathology at the macroscopic and microscopic level
- clinical signs of toxicity ([3]; 1200 mg/kg/day): did not induce marked clinical signs of toxicity
- clinical pathological parameters ([3]; po): some, but usually small, effects
- blood chemistry and body masses ([3]; po, 1200 mg/kg/day): Slight alterations in blood chemistry and slight decrease in body masses
- acid-base status [4]: very low grade acid-base disturbance
- chemical pathology parameters [4]: altered some of the chemical pathology parameters
- overall toxicity assessment ([4]; 1000 mg/kg/day): does not appear to have any serious deleterious effect
- pathology, body masses and organ masses compared to the control animals ([4]; 1000 mg/kg/day): no differences
